Data published in patent US12625139B2, “Methods for modulation of acetyltransferase activity and applications thereof including treatments” (The Board of Trustees of the Leland Stanford Junior …, priority 2019, dated 2026).
Structures can show the parent of a compound that is named as a salt.

Molecular target: T1, recombinant HAT1 (Homo sapiens, UniProt O14929)
T1 construct: FLAG (DYKDDDDK); made in house; host or cells: HEK-293f freestyle cells (human), forskolin-treated; purified by FLAG immunoprecipitation
T1 sequence (O14929 1-419): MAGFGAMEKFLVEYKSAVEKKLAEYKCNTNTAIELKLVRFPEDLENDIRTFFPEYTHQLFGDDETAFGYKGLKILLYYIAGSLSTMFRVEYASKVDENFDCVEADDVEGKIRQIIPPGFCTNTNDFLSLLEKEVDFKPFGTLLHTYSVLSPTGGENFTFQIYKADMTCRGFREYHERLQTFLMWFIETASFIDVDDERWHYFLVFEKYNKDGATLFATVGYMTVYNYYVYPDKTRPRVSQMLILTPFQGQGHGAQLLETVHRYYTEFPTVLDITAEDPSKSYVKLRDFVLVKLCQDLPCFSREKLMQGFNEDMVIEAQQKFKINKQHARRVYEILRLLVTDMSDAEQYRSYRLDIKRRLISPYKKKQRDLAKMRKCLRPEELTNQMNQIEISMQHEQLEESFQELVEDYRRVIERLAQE
Experiment: HAT1 modulator assay (4-pentynoyl CoA, click chemistry, streptavidin-HRP fluorescence)
Format: biochemical
Settings: HAT1 assay; FIGS. 7B and 9
Description: Provided in FIG. 4 is an exemplary embodiment of an experimental assay to identify modulators of HAT1. To begin the assay, a putative modulator is mixed with the substrate histone H4 N-terminal peptide, the acetyl-like donor 4-pentynonyl CoA, and recombinant HAT1. The H4 N-terminal peptide is the first 23 amino acids of H4 (SEQ. ID No. 1) with a biotin conjugated at the C-terminus of the peptide. Importantly, K5 and K12 of the H4 N-terminal peptide are available for di-acetylation. The 4-pentynoyl CoA is an acetyl CoA derivative having an […] extending from the acetyl group. The recombinant HAT1 is produced in human cells with a peptide tag […] (FLAG®), which is purified via immunoprecipitation.
Each reaction is carried out within a well of a 96-well plate for one hour at 37° C., resulting in pentynoylation of K5 and K12 of the substrate peptide. The reactions are transferred to a neutravidin-coated 96-well plate to capture the biotinylated peptide via a neutravidin-biotin interaction performed for one hour at room temperature. After washing the wells 3X with PBS-tween, the substrate peptides are exposed to biotinylated azide, which reacts with the pentynoyl groups in a copper (I) click chemistry reaction to further functionalize these appendages with biotin, which is performed at 37° C. for 1 hour. Substrates that were acetylated by HAT1 now have an available biotin extending from K5 and K12. After washing the wells 3X with PBS-tween, streptavidin-HRP is added to the well to bind to every available biotin for one hour at 37° C. After washing the wells 3X with PBS-tween, 10-Acetyl-3,7-dihydroxyphenoxazine (Amplex® Red ThermoFisher® Scientific, Waltham, MA) is added as a substrate of HRP and incubated for 30 minutes to produce a detectable fluorescence (570 nm excitation and 585 nm emission), which is measurable utilizing a plate reader.
The HAT1 enzymatic reaction conditions was also optimized, utilizing 0.1M EDTA, 0.1M DTT or both. As portrayed in the right panel of FIG. 5, 0.1M DTT provided the best activity and was utilized in the assay reaction.
FIG. 6 provides HAT1 enzyme kinetics (left panel) and Michaelis-Menten analysis (right panel). To perform the enzyme kinetics, various amounts of input enzyme were tested in 20 uL reaction with the amount of activity measured over time. […] Assay reactions were run with 15 μM of substrate peptide.

Compound | inhibition of HAT1 activity
CC[C@@]1(O)C[C@H](O[C@H]2C[C@H](N(C)C)[C@H](O)[C@H](C)O2)c2c(O)c3c(c(O)c2[C@H]1O[C@H]1C[C@H](N(C)C)[C@H](O)[C@H](C)O1)C(=O)c1cccc(O)c1C3=O [NSC 136044, rhodomycin A] | various ability to inhibit HAT1
COc1cccc2c1C(=O)c1c(O)c3c(c(O)c1C2=O)CC(O)(/C(C)=N/O)CC3OC1CC(N)C(O)C(C)O1 (stereo not drawn) [NSC 143491, daunomycin 3-oxime hydrochloride] | various ability to inhibit HAT1
CC[C@@]1(O)C[C@H](O[C@H]2C[C@H](N(C)C)[C@H](O[C@H]3C[C@H](O)[C@H](O[C@H]4CCC(=O)[C@H](C)O4)[C@H](C)O3)[C@H](C)O2)c2c(cc3c(c2O)C(=O)c2c(O)cccc2C3=O)[C@H]1C(=O)OC [NSC 208734, aclacinomycin A1] | various ability to inhibit HAT1
CC[C@@]1(O)C[C@H](O[C@H]2C[C@H](N(C)C)[C@H](O[C@H]3C[C@@H]4O[C@H]5CC(=O)[C@H](C)O[C@H]5O[C@@H]4[C@H](C)O3)[C@H](C)O2)c2c(cc3c(c2O)C(=O)c2c(O)ccc(O)c2C3=O)[C@H]1C(=O)OC [NSC 243023, cinerubin B] | various ability to inhibit HAT1
CC[C@@]1(O)C[C@H](OC2CC(N(C)C)C(OC3CC(O)C(OC4CC(O)C(O)C(C)O4)C(C)O3)C(C)O2)c2c(cc3c(c2O)C(=O)c2c(O)ccc(O)c2C3=O)[C@H]1C(=O)OC (stereo partly drawn) [NSC 265211, Methyl (1R,2R,4S)-4-[5-[5-(4,5-dihydroxy-6-methyloxan-2-yl)oxy-4-hydroxy-6-methyloxan-2-yl]oxy-4-(dimethylamino)-6-methyloxan-2-yl]oxy-2-ethyl-2,5,7,10-tetrahydroxy-6,11-dioxo-3,4-dihydro-1H-tetracene-1-carboxylate] | various ability to inhibit HAT1
COC1C(C)OC(OC2CC(C)(O)Cc3cc4c(c(O)c32)C(=O)c2c(O)cc3c(c2C4=O)OC2OC3(C)C(O)C(N(C)C)C2O)C(OC)C1(C)OC (stereo not drawn) [NSC 265450, nagalomycin C] | various ability to inhibit HAT1
CC[C@@]1(O)C[C@H](O[C@H]2C[C@H](N(C)C)[C@H](O)[C@H](C)O2)c2c(cc3c(c2O)C(=O)c2c(O)ccc(O)c2C3=O)[C@H]1C(=O)OC [NSC 267229, pyrromycin] | various ability to inhibit HAT1
COc1cccc2c1C(=O)c1c(O)c3c(c(O)c1C2=O)C[C@@](O)(C(C)=O)C[C@@H]3OC1CC(N(Cc2ccccc2)Cc2ccccc2)C(O)C(C)O1.Cl (stereo partly drawn) [NSC 268242, N,N-Dibenzyldaunorubicin] | various ability to inhibit HAT1
CC(C)(COP(=O)(O)OP(=O)(O)OC[C@H]1O[C@@H](n2cnc3c(N)ncnc32)[C@H](O)[C@@H]1OP(=O)(O)O)[C@@H](O)C(=O)NCCC(=O)NCCSC(=O)[C@@H](N)CCCCN [lysyl CoA, reference compound] | did not inhibit HAT1 activity

Same assay, conditions: Michaelis-Menten analysis, H4 peptide substrate varied; FIG. 6

Km [µM] | Compound
13 | H4 peptide substrate: first 23 amino acids of H4 (SEQ. ID No. 1) with a biotin conjugated at the C-terminus [reference compound]

Same assay, conditions: screen of fifty compounds; FIG. 8

Compound | modulation of HAT1 activity (agonist or antagonist)
O=C(O)C(O)C(O)C(=O)O.OCC(O)C(O)C(O)C(O)C(O)c1nc2ccccc2[nH]1 (stereo not drawn) [NSC 56094, 1-(1H-Benzimidazol-2-yl)hexane-1,2,3,4,5,6-hexol; 2,3-dihydroxybutanedioic acid] | agonists
CC1(O)Nc2nc3c(ncn3C3OC(CO)C(O)C3O)c(=O)n2C1O (stereo not drawn) [NSC 309109, 3-[3,4-Dihydroxy-5-(hydroxymethyl)oxolan-2-yl]-6,7-dihydroxy-6-methyl-5,7-dihydroimidazo[1,2-a]purin-9-one] | antagonists
OCC(O)C(OC1OC(CO)C(O)C(O)C1O)C(O)c1cnn(-c2ccccc2)n1 (stereo not drawn) [NSC 405936, 2-(Hydroxymethyl)-6-[1,3,4-trihydroxy-1-(2-phenyltriazol-4-yl)butan-2-yl]oxyoxane-3,4,5-triol] | agonists
nogalarol [NSC 86005] | antagonists

System: CBP/p300 acetyltransferase
Experiment: not given
Settings: stated as known; cited from earlier work

Compound | inhibition of CBP/p300 acetyltransferase
CC(C)(COP(=O)(O)OP(=O)(O)OC[C@H]1O[C@@H](n2cnc3c(N)ncnc32)[C@H](O)[C@@H]1OP(=O)(O)O)[C@@H](O)C(=O)NCCC(=O)NCCSC(=O)[C@@H](N)CCCCN [lysyl CoA, reference compound] | known inhibitor of CBP/p300 acetyltransferase
